Results published in article PMC9958325 (Nature Communications, 2023).
Values joined by “and” are separate entries in the source; they are usually repeats but may differ in a detail not shown here. Equal values may be shown once. Read-outs that look alike come from different tables or passages of the source.

Tests used:
[1] = test system: SARS-CoV-2 Delta, BA.1 and BA.2 variants; parameters: species or system hACE2 knock-in mice; details: mouse, in vivo, ip
SARS-CoV-2 K1734/δ = experiment: microbe, parasite or virus in culture; type: cell-based
SARS-CoV-2 5356/κ = experiment: microbe, parasite or virus in culture; type: cell-based
Glycine-added M^pro = Glycine-added M^pro (Severe acute respiratory syndrome coronavirus 2, UniProt P0DTD1)
SARS-CoV-2 QHN001/α = experiment: microbe, parasite or virus in culture; type: cell-based
SARS-CoV-2 TY8-612/β = experiment: microbe, parasite or virus in culture; type: cell-based
SARS-CoV-2 TY7-501/γ = experiment: microbe, parasite or virus in culture; type: cell-based
SARS-CoV-2^WK-521 = experiment: microbe, parasite or virus in culture; type: cell-based; details: read-out: EC50 in cell-based assays
[2] = test system: SARS-CoV-2 Delta, BA.1 and BA.2 variants; parameters: species or system hACE2 knock-in mice; details: mouse, in vivo
[3] = read-out: EC50 δ, individual assays
[4] = read-out: EC50 κ, individual assays
[5] = read-out: EC50 against QHN001/α
[6] = read-out: EC50 α, individual assays
[7] = read-out: EC50 against TY8-612/β
[8] = read-out: EC50 β, individual assays
[9] = read-out: EC50 against Y7-501/γ
[10] = read-out: EC50 γ, individual assays

With CC(C)(C)[C@H](NC(=O)C(F)(F)F)C(=O)N1C[C@H]2[C@@H]([C@H]1C(=S)N[C@@H](C[C@@H]1CCNC1=O)C(=O)c1nc3c(F)cccc3s1)C2(C)C [TKB248] the “Effect on lung virus titers (in words)” value [1] was “exerted comparable efficacy against both Omicron BA.1 and BA.2 variants”, the EC50 (SARS-CoV-2 K1734/δ; read-out: EC50 against K1734/δ) was 273 ± 36 nM and the EC50 (SARS-CoV-2 K1734/δ; read-out: EC50 δ, Average) was 274 nM. For the same compound, the EC50 (SARS-CoV-2 K1734/δ; [3]) was 270 nM and 311 nM and 240 nM, the EC50 (SARS-CoV-2 5356/κ; read-out: EC50 against 5356/k) was 180 ± 35 nM and the EC50 (SARS-CoV-2 5356/κ; read-out: EC50 κ, Average) was 180 nM. The EC50 (SARS-CoV-2 5356/κ; [4]) was 215 nM and 145 nM, the “Peak ratio, Dimer-1X compound” value (Glycine-added M^pro) was 9.9% and the “Peak ratio, Dimer-2X compound” value (Glycine-added M^pro) was 28.4%. For the same compound, the EC50 (SARS-CoV-2 QHN001/α; [5]) was 300 ± 1 nM, the EC50 (SARS-CoV-2 QHN001/α; read-out: EC50 α, Average) was 300 nM and the EC50 (SARS-CoV-2 QHN001/α; [6]) was 300 nM and 299 nM. For the same compound, the EC50 (SARS-CoV-2 TY8-612/β; [7]) was 287 ± 5 nM, the EC50 (SARS-CoV-2 TY8-612/β; read-out: EC50 β, Average) was 288 nM and the EC50 (SARS-CoV-2 TY8-612/β; [8]) was 290 nM and 291 nM and 282 nM. For the same compound, the EC50 (SARS-CoV-2 TY7-501/γ; [9]) was 228 ± 61 nM, the EC50 (SARS-CoV-2 TY7-501/γ; read-out: EC50 γ, Average) was 228 nM and the EC50 (SARS-CoV-2 TY7-501/γ; [10]) was 288 nM and 165 nM.
In the case of CC(C)(C)[C@H](NC(=O)C(F)(F)F)C(=O)N1C[C@H]2[C@@H]([C@H]1C(=O)N[C@@H](C[C@@H]1CCNC1=O)C(=O)c1nc3c(F)cccc3s1)C2(C)C [TKB245], the EC50 (SARS-CoV-2^WK-521) is reported as about 30 nM, the “Chest micro-CT images vs vehicle control” value [2] is reported as “No relevant differences were” and the “Lung immunohistochemistry, SARS-CoV-2 nucleocapsid protein vs vehicle group” value [2] is reported as “no relevant change in number”. The “Effect on lung virus titers (in words)” value [1] was “considerably reduced titers of both variants in lung”, the EC50 (SARS-CoV-2 K1734/δ; read-out: EC50 δ, Average) was 30.4 nM and the EC50 (SARS-CoV-2 K1734/δ; [3]) was 27.6 nM and 33.6 nM. For the same compound, the EC50 (SARS-CoV-2 5356/κ; read-out: EC50 κ, Average) was 20.6 nM, the EC50 (SARS-CoV-2 5356/κ; [4]) was 19.2 nM and 22.4 nM and the EC50 (SARS-CoV-2 QHN001/α; [5]) was 42 ± 42 nM. The EC50 (SARS-CoV-2 QHN001/α; read-out: EC50 α, Average) was 42 nM, the EC50 (SARS-CoV-2 QHN001/α; [6]) was 90 nM and 20 nM and 15.8 nM and the EC50 (SARS-CoV-2 TY8-612/β; [7]) was 28 ± 9 nM. The EC50 (SARS-CoV-2 TY8-612/β; read-out: EC50 β, Average) was 28.4 nM, the EC50 (SARS-CoV-2 TY8-612/β; [8]) was 19 nM and 36 nM and the EC50 (SARS-CoV-2 TY7-501/γ; [9]) was 56 ± 45 nM. The EC50 (SARS-CoV-2 TY7-501/γ; read-out: EC50 γ, Average) was 56.1 nM and the EC50 (SARS-CoV-2 TY7-501/γ; [10]) was 10 nM and 58.2 nM and 100 nM.
With CC(C)(C)[C@H](NC(=O)C(F)(F)F)C(=O)N1C[C@H]2[C@@H]([C@H]1C(=O)N[C@H](C#N)C[C@@H]1CCNC1=O)C2(C)C [Nirmatrelvir, reference compound] the EC50 (SARS-CoV-2 K1734/δ; Severe acute respiratory syndrome coronavirus 2, Vero C1008, read-out: EC50 against K1734/δ) was 1500 ± 78 nM, the EC50 (SARS-CoV-2 K1734/δ; Severe acute respiratory syndrome coronavirus 2, Vero C1008, read-out: EC50 δ, individual assays) was 1510 nM and the EC50 (SARS-CoV-2 K1734/δ; [3]) was 1420 nM and 1570 nM. For the same compound, the EC50 (SARS-CoV-2 5356/κ; Severe acute respiratory syndrome coronavirus 2, Vero C1008, read-out: EC50 against 5356/k) was 1660 ± 606 nM, the EC50 (SARS-CoV-2 5356/κ; Severe acute respiratory syndrome coronavirus 2, Vero C1008, read-out: EC50 κ, Average) was 1660 nM and the EC50 (SARS-CoV-2 5356/κ; [4]) was 1650 nM and 2270 nM and 1060 nM. The EC50 (SARS-CoV-2 QHN001/α; Severe acute respiratory syndrome coronavirus 2, Vero C1008, read-out: EC50 against QHN001/α) was 1980 ± 559 nM, the EC50 (SARS-CoV-2 QHN001/α; Severe acute respiratory syndrome coronavirus 2, Vero C1008, read-out: EC50 α, Average) was 1980 nM and the EC50 (SARS-CoV-2 QHN001/α; Severe acute respiratory syndrome coronavirus 2, Vero C1008, read-out: EC50 α, individual assays) was 2540 nM. It also gave an EC50 (SARS-CoV-2 QHN001/α; [6]) of 1420 nM, an EC50 (SARS-CoV-2 TY8-612/β; Severe acute respiratory syndrome coronavirus 2, Vero C1008, read-out: EC50 against TY8-612/β) of 1500 ± 240 nM and an EC50 (SARS-CoV-2 TY8-612/β; Severe acute respiratory syndrome coronavirus 2, Vero C1008, read-out: EC50 β, Average) of 1500 nM. For the same compound, the EC50 (SARS-CoV-2 TY8-612/β; Severe acute respiratory syndrome coronavirus 2, Vero C1008, read-out: EC50 β, individual assays) was 1560 nM, the EC50 (SARS-CoV-2 TY8-612/β; [8]) was 1700 nM and 1230 nM and the EC50 (SARS-CoV-2 TY7-501/γ; Severe acute respiratory syndrome coronavirus 2, Vero C1008, read-out: EC50 against Y7-501/γ) was 2490 ± 292 nM. For the same compound, the EC50 (SARS-CoV-2 TY7-501/γ; Severe acute respiratory syndrome coronavirus 2, Vero C1008, read-out: EC50 γ, Average) was 2490 nM, the EC50 (SARS-CoV-2 TY7-501/γ; Severe acute respiratory syndrome coronavirus 2, Vero C1008, read-out: EC50 γ, individual assays) was 2500 nM and the EC50 (SARS-CoV-2 TY7-501/γ; [10]) was 2200 nM and 2780 nM.
